Results published in ChEMBL document CHEMBL5653607, “KN-62, 1-[N,O-bis(5-isoquinolinesulfonyl)-N-methyl-L-tyrosyl]-4-phenylpiperazi ne, a specific inhibitor of Ca2+/calmodulin-dependent protein kinase II” (J Biol Chem, 1990).
Active and inactive are the calls of the source. No cut-off for these calls is given here.

Tests used:
Homo sapiens = species on record: Homo sapiens; experiment: Inhibition of Ca2+/CaM kinase II (unknown origin) at 1 uM in presence of [gamma-33P]ATP relative to control
Gallus gallus = species on record: Gallus gallus; experiment: Inhibition of chicken gizzard MLC at 45 uM in presence of [gamma-33P]ATP relative to control
[1] = target: Protein kinase C (PKC) (Homo sapiens) (UniProt O94806+P41743+P17252+P05129+Q05655+P05771+Q05513+Q02156+P24723+Q15139+Q04759); experiment: Inhibition of protein kinase C (unknown origin) at 45 uM relative to control; assay type: protein assay
[2] = target: cAMP-dependent protein kinase (PKA) (Homo sapiens) (UniProt P22694+P17612+P22612); experiment: Inhibition of protein kinase A (unknown origin) at 45 uM relative to control; assay type: protein assay
[3] = Competitive inhibition of rat brain Ca2+/CaM kinase II assessed as inhibition constant in presence of [gamma-33P]ATP and varying concentration of calmodulin; assay type: tissue-based
Rattus norvegicus [4] = species on record: Rattus norvegicus; experiment: Competitive inhibition of rat brain Ca2+/CaM kinase II at 0.5 to 2.5 uM in presence of calmodulin and varying concentration of [gamma-33P]ATP; assay type: tissue-based; settings: dose 0.5-2.5 µM
[5] = target: Calcium/calmodulin-dependent protein kinase type II subunit alpha (Rattus norvegicus, UniProt P11275); experiment: Inhibition of rat brain Ca2+/CaM kinase II alpha subunit autophosphorylation measured after 2 mins in presence of [gamma-33P]ATP by SDS-PAGE analysis; assay type: tissue-based
Sequence of Calcium/calmodulin-dependent protein kinase type II subunit alpha (P11275 whole entry): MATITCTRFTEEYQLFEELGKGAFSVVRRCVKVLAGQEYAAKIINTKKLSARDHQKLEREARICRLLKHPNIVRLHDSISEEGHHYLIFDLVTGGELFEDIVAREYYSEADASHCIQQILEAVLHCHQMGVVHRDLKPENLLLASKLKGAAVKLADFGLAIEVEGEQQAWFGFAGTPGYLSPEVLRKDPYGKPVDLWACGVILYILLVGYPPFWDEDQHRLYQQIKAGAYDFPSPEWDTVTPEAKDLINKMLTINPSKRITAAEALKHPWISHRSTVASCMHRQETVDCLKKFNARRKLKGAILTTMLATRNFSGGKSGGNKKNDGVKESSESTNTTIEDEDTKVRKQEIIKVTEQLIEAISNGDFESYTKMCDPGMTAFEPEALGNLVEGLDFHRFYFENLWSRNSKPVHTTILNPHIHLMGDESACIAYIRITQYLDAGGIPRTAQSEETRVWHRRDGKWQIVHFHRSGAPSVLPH

[6] = target: Calcium/calmodulin-dependent protein kinase type II subunit beta (Rattus norvegicus, UniProt P08413); experiment: Inhibition of rat brain Ca2+/CaM kinase II beta subunit autophosphorylation measured after 2 mins in presence of [gamma-33P]ATP by SDS-PAGE analysis; assay type: tissue-based
Sequence of Calcium/calmodulin-dependent protein kinase type II subunit beta (P08413 whole entry): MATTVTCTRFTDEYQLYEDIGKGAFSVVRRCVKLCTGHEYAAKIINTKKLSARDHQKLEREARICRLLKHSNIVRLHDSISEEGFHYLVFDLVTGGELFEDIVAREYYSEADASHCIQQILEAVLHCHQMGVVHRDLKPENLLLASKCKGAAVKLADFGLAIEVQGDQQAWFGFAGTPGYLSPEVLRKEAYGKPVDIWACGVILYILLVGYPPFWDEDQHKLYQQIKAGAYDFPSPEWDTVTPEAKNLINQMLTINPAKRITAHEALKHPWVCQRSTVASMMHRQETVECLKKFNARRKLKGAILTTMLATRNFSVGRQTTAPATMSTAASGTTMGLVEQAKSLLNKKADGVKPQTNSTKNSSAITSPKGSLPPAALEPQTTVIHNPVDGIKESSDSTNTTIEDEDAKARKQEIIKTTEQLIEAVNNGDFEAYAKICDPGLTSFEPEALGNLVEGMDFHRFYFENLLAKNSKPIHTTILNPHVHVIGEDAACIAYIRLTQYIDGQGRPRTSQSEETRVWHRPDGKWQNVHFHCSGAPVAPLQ

PC12D [7] = experiment: Inhibition of A23187-induced Ca2+/CaM kinase II 53-kDa autophosphorylation in [32P] orthophosphate labeled rat PC12D cells preincubated with compound for 1 hr followed by A23187 induction and measured after 30 mins by immunoprecipitation method; assay type: cell-based; settings: dose 0.5-1 µM, time 1.5 hrs
PC12D [8] = experiment: Inhibition of A23187-induced Ca2+/CaM kinase II 53-kDa in [32P] orthophosphate labeled rat PC12D cells assessed as increase in phosphorylation at 0.5 to 1 uM preincubated with compound for 1 hr followed by A23187 induction and measured after 30 mins by immunoprecipitation method; assay type: cell-based; settings: dose 0.5-1 µM, time 1.5 hrs
PC12D [9] = experiment: Inhibition of A23187-induced Ca2+/CaM kinase II 40-kDa in [32P] orthophosphate labeled rat PC12D cells assessed as increase in phosphorylation at 0.5 to 1 uM preincubated with compound for 1 hr followed by A23187 induction and measured after 30 mins by immunoprecipitation method; assay type: cell-based; settings: dose 0.5-1 µM, time 1.5 hrs
Rattus norvegicus [10] = species on record: Rattus norvegicus; experiment: Binding affinity to rat brain Ca2+/CaM kinase II in presence of [gamma-33P]ATP by Sepharose coupled chromatography based analysis; assay type: tissue-based
[11] = Inhibition of rat brain Ca2+/CaM kinase II autophosphorylation assessed as incorporation of 32P into myosin kDa light chain measured at Pi/mg enzyme at 50 uM incubated for 1 min in presence of [gamma-33P]ATP
[12] = Inhibition of rat brain Ca2+/CaM kinase II autophosphorylation assessed as decrease in exogenous substrate phosphorylation at 50 uM incubated for 1 min in presence of [gamma-33P]ATP relative to control; parameters: scale not given: the % may be the effect or the level left
[13] = Inhibition of rat brain Ca2+/CaM kinase II autophosphorylation measured at Pi/mg enzyme after phosphorylation at 50 uM incubated for 5 min in presence of [gamma-33P]ATP
Rattus norvegicus [14] = species on record: Rattus norvegicus; experiment: Inhibition of rat brain Ca2+/CaM kinase II autophosphorylation assessed as decrease in exogenous substrate phosphorylation at 50 uM incubated for 1 min in presence of [gamma-33P]ATP measured after phosphorylation; assay type: tissue-based
[15] = Inhibition of rat brain Ca2+/CaM kinase II independent activity assessed as fold increase in enzyme activity at 50 uM incubated for 1 min
[16] = Inhibition of Ca2+/CaM kinase II (unknown origin); parameters: species or system Homo sapiens
[17] = Inhibition of MLC (unknown origin) assessed as inhibition constant; parameters: species or system Homo sapiens
[18] = Inhibition of Ca2+/CaM kinase II (unknown origin) assessed as inhibition constant; parameters: species or system Homo sapiens

| inhibition (Homo sapiens) [%] | inhibition (Gallus gallus) [%] | inhibition [1] [%] | inhibition [2] [%] | Ki [3] [µM] | inhibition (Rattus norvegicus [4]) | IC50 [5] [µM] | IC50 [6] [µM] | Activity (Rattus norvegicus [10]) | Activity (Rattus norvegicus [14]) | IC50 [16] [µM] | Ki [17] [µM] | Ki [18] [µM] | SMILES | inhibition (PC12D [7]) | Activity (PC12D [8]) | Activity (PC12D [9]) | Activity [11] [nmol] | Activity [12] [%] | Activity [13] [nmol] | fold change (FC) [15] |
| --- | --- | --- | --- | --- | --- | --- | --- | --- | --- | --- | --- | --- | --- | --- | --- | --- | --- | --- | --- | --- |
| 80 | 12 | 12 | 22 | 0.9 | inactive | 0.45 | 1 | Active | inactive | – | – | – | CN([C@@H](Cc1ccc(OS(=O)(=O)c2cccc3cnccc23)cc1)C(=O)N1CCN(c2ccccc2)CC1)S(=O)(=O)c1cccc2cnccc12 | Dose-Dependent Effect | Active | inactive | 1.8 | 75 | 8.1 | 2.5 |
| – | – | – | – | – | – | – | – | – | – | 15 | 18 | 7.5 | NCCCCCCNS(=O)(=O)c1cccc2c(Cl)cccc12 | – | – | – | – | – | – | – |
